What was measured:
[1] = target: human CDK4 and genetically truncated (1-264) cyclin D3 (Homo sapiens, UniProt P11802); assay: Inhibition of CDK4/Cyclin D Retinoblastoma Kinase Activity; type: biochemical; conditions: 0.03 μM compound; Table 3
Outline: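 Human CDK4/truncated cyclin D3 (1-264) complex from baculovirus-infected insect cells, 5 nM, phosphorylating Rb fragment (residues 386-928, His-tagged) with 25 μM [32/33P]ATP in HEPES pH 7.4, MgCl2, 2% DMSO at 30° C. for 20 min (60 min for tight binders). Filter-captured radioactivity by phosphorimager; apparent Ki from competitive or tight-binding fits.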

[2] = system: HCT-116 cell line; assay: Inhibition of cell growth, tetrazolium salt (MTT) assay; type: cell-based; conditions: HCT-116, Table 3; for HCT-116 % Inhibition at 0.1 μM: 0.1 μM compound; for HCT-116 % Inhibition at 0.25 μM: 0.25 μM compound
Outline: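 HCT-116 cells in McCoy's 5A medium received compound 4 h after plating (0.5% v/v DMSO) and were incubated three to five days at 37° C, 5% CO2. MTT (0.2 mg/mL final) then added for 4 h; DMSO-solubilized formazan read at 540 nm against 0.5% DMSO-treated controls.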

[3] = target: CDK2/Cyclin A (Homo sapiens, UniProt P24941); assay: Inhibition of CDK2/Cyclin A Retinoblastoma Kinase Activity; type: biochemical; conditions: 0.03 μM compound; Table 3
Outline: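 Baculovirus-expressed CDK2 complexed with proteolyzed cyclin A (10 or 19 nM), Rb fragment substrate, 25 μM [32P/33P]ATP, HEPES pH 7.4, 30 °C for 60 or 75 min under initial-rate conditions. Filter capture and phosphorimager readout; apparent Ki fitted to competitive or tight-binding competitive inhibition.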

Sequence of human CDK4 and genetically truncated (1-264) cyclin D3 (P11802 whole entry, the tested form may be a part): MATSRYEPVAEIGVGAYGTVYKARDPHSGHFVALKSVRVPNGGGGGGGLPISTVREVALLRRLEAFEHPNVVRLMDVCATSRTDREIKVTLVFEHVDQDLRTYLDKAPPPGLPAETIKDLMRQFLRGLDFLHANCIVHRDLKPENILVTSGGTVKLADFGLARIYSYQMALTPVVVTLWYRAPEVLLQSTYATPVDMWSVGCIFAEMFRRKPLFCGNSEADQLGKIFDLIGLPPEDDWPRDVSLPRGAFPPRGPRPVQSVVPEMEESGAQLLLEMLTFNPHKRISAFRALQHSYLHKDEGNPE
Sequence of human CDK4 and genetically truncated (1-264) cyclin D3 (P30281 1-264 partner): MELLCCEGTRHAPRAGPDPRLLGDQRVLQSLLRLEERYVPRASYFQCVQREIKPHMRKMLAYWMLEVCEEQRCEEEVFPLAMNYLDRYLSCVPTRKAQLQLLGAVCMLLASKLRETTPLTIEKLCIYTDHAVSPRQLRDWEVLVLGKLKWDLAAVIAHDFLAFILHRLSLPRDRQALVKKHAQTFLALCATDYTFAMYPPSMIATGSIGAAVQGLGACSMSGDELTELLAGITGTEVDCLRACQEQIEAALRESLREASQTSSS

| SMILES | CDK4 % Inhibition at 0.03 μM [1] [%] | HCT-116 % Inhibition at 0.1 μM [2] [%] | HCT-116 % Inhibition at 0.25 μM [2] [%] | CDK2 % Inhibition at 0.03 μM [3] [%] |
| --- | --- | --- | --- | --- |
| CC(C)c1cc(C(C)C)c(S(=O)(=O)N2CCC(Nc3nc(N)c(C(=O)c4c(F)cccc4F)s3)CC2)c(C(C)C)c1 [Example P9] | 46 | 13 | 35 | −17 |
| Cc1cc(C)c(S(=O)(=O)N2CCC(Nc3nc(N)c(C(=O)c4c(F)cccc4F)s3)CC2)c(C)c1 [Example P10] | 11 | 14 | 35 | −14 |
| Nc1nc(NC2CCN(S(=O)(=O)c3cccc([N+](=O)[O-])c3)CC2)sc1C(=O)c1c(F)cccc1F [Example P11] | 22 | 19 | 27 | −23 |
| Nc1nc(NC2CCN(S(=O)(=O)c3ccc(Br)cc3)CC2)sc1C(=O)c1c(F)cccc1F [Example P12] | 54 | 24 | 29 | 54 |
| Nc1nc(NC2CCN(S(=O)(=O)c3ccc(F)cc3)CC2)sc1C(=O)c1c(F)cccc1F [Example P13] | 77 | 19 | 31 | 75 |
| Nc1nc(NC2CCN(S(=O)(=O)c3ccc(Cl)cc3)CC2)sc1C(=O)c1c(F)cccc1F [Example P14] | 67 | 23 | 25 | 60 |
| Nc1nc(NC2CCN(S(=O)(=O)c3ccc(Cl)c([N+](=O)[O-])c3)CC2)sc1C(=O)c1c(F)cccc1F [Example P15] | 65 | 30 | 34 | 50 |
| Nc1nc(NC2CCN(S(=O)(=O)c3ccc(I)cc3)CC2)sc1C(=O)c1c(F)cccc1F [Example P16] | 67 | 34 | 35 | 71 |
| CC(=O)Nc1ccc(S(=O)(=O)N2CCC(Nc3nc(N)c(C(=O)c4c(F)cccc4F)s3)CC2)cc1 [Example P17] | 78 | 14 | 36 | 77 |
| CN(C)c1ccc(N=Nc2ccc(S(=O)(=O)N3CCC(Nc4nc(N)c(C(=O)c5c(F)cccc5F)s4)CC3)cc2)cc1 [Example P18] | 6 | 20 | 36 | −20 |
| Nc1nc(NC2CCN(S(=O)(=O)c3ccc([N+](=O)[O-])cc3)CC2)sc1C(=O)c1c(F)cccc1F [Example P19] | 73 | 19 | 30 | 63 |
| COc1ccc(S(=O)(=O)N2CCC(Nc3nc(N)c(C(=O)c4c(F)cccc4F)s3)CC2)cc1 [Example P20] | 76 | 23 | 43 | 78 |
| Nc1nc(NC2CCN(S(=O)(=O)c3ccc(C(=O)O)cc3)CC2)sc1C(=O)c1c(F)cccc1F [Example P21] | 32 | 19 | 29 | 23 |
| CC(C)(C)c1ccc(S(=O)(=O)N2CCC(Nc3nc(N)c(C(=O)c4c(F)cccc4F)s3)CC2)cc1 [Example P22] | 38 | 27 | 31 | 29 |
| Cc1ccc(S(=O)(=O)N2CCC(Nc3nc(N)c(C(=O)c4c(F)cccc4F)s3)CC2)cc1 [Example P23] | 67 | 19 | 32 | 64 |
| CC(C)S(=O)(=O)N1CCC(Nc2nc(N)c(C(=O)c3c(F)cccc3F)s2)CC1 [Example P24] | 24 | 26 | 36 | 5 |
| Nc1nc(NC2CCN(S(=O)(=O)Cc3ccccc3)CC2)sc1C(=O)c1c(F)cccc1F [Example P25] | 82 | 8 | 33 | 62 |
| Nc1nc(NC2CCN(S(=O)(=O)/C=C/c3ccccc3)CC2)sc1C(=O)c1c(F)cccc1F [Example P26] | 39 | 4 | 23 | 37 |
| CCCCS(=O)(=O)N1CCC(Nc2nc(N)c(C(=O)c3c(F)cccc3F)s2)CC1 [Example P27] | 41 | 4 | 23 | 16 |
| COC(=O)c1ccccc1S(=O)(=O)N1CCC(Nc2nc(N)c(C(=O)c3c(F)cccc3F)s2)CC1 [Example P28] | 56 | 7 | 28 | 55 |
| Nc1nc(NC2CCN(S(=O)(=O)c3cccc(C(=O)O)c3)CC2)sc1C(=O)c1c(F)cccc1F [Example P29] | 56 | 0 | 21 | 35 |
| CCc1ccc(S(=O)(=O)N2CCC(Nc3nc(N)c(C(=O)c4c(F)cccc4F)s3)CC2)cc1 [Example P30] | 61 | 9 | 17 | 53 |
| CC(C)c1ccc(S(=O)(=O)N2CCC(Nc3nc(N)c(C(=O)c4c(F)cccc4F)s3)CC2)cc1 [Example P31] | 50 | 3 | 16 | 40 |
| Nc1nc(NC2CCN(S(=O)(=O)c3ccccc3F)CC2)sc1C(=O)c1c(F)cccc1F [Example P32] | 59 | 13 | 28 | 58 |
| Nc1nc(NC2CCN(S(=O)(=O)c3ccc(C(F)(F)F)cc3)CC2)sc1C(=O)c1c(F)cccc1F [Example P33] | 59 | 6 | 32 | 56 |
| Nc1nc(NC2CCN(S(=O)(=O)c3ccc(F)cc3F)CC2)sc1C(=O)c1c(F)cccc1F [Example P34] | 58 | 8 | 23 | 60 |
| Nc1nc(NC2CCN(S(=O)(=O)c3cc(Cl)sc3Cl)CC2)sc1C(=O)c1c(F)cccc1F [Example P35] | 47 | 1 | 22 | 37 |
| Nc1nc(NC2CCN(S(=O)(=O)c3ccc(Cl)s3)CC2)sc1C(=O)c1c(F)cccc1F [Example P36] | 66 | 8 | 26 | 54 |
| Cc1cccc(S(=O)(=O)N2CCC(Nc3nc(N)c(C(=O)c4c(F)cccc4F)s3)CC2)c1 [Example P37] | 65 | 0 | 27 | 58 |

— patent publication US20050101595A1, “N-containing cycloalkyl-substituted amino-thiazole derivatives and pharmaceutical compositions for inhibiting cell proliferation and methods for their use” (PFIZER INC., priority 2003, published 2005)
